Data on 26 molecules can be found in patent publication US9221773B2, “Benzamide derivatives” (The Translational Genomics Research Institute, priority 2009, dated 2015).

pIC50: −log10 of the molar value.

Holding throughout (assay type): cell-based
The test system of one assay is A2780 cell line. Put plainly: CellTiter-Blue cell viability assay, single agent, A2780. The note with it: Homo sapiens, A2780 ovarian adenocarcinoma cells, 72 hours treatment. An excerpt:
(§1) Cell viability in the presence of varying concentrations of the above listed compounds at different time points was used to assess cytotoxicity and the effect of the compounds on cell proliferation. The SKOV3 cell line was originally isolated in 1973 from the ascitic fluid of a patient with an ovarian cancer. SKOV3 is a hypodiploid human cell line. SKOV3 cells are resistant to tumor necrosis factor and to several cytotoxic drugs including diphtheria toxin, cis-platinum and adriamycin. The A2780 cell line is a human ovarian adenocarcinoma cell line originally derived from a biopsy from an untreated patient. The A2780/CP cell line is a line derived from the A2780 cell line selected for resistance to cis-platinum.
(§2) Cell viability was measured by the CellTiter-Blue® cell viability assay Promega (Madison, Wis.). This procedure measures the conversion of the indicator dye (resazurin) to resorufin, an indicator of cell viability. Following treatment, growth media was removed and cells were incubated with 20 μl of CellTiter-Blue® Reagent and growth media for 1-4 hours at 37° C. Fluorescence values were measured at 535/590 nm using a Beckman-Coulter DTX-880 microplate reader.
(§3) Cells were grown to 70% confluency, trypsinized, counted, and seeded in 96 well flat-bottom plates at a final concentration of 2.5×10^3-5×10^3 cells/well (Day 0). Cells were allowed to incubate in growth media for 24 hours to allow for maximum adhesion. Treatment with the test agents or standard agents began on Day 1 and continued for 72 hours. At the 72 hour timepoint, treatment containing media was removed. Viable cell numbers are quantified by the CellTiter-Blue® cell viability assay as described above. Experiments were repeated at least twice with the same concentrations to determine growth inhibitory activity. Results from these studies were used to calculate an IC50 value (concentration of drug that inhibits cell growth by 50 percent of control) for each compound.
(§4) For single agent and combination studies, data from each experiment was collected and expressed as % Cell Expansion using the following calculation: % Cell Expansion=(ftest/fvehicle)×100
(§5) Where ftest is the fluorescence of the tested sample, and fvehicle is the fluorescence of the vehicle in which the drug is dissolved. Dose response graphs and IC50 values were generated using Prism 4 software (GraphPad) using the following equation: […]

In another assay the test system is SKOV3 cell line. As to the kind of experiment: CellTiter-Blue cell viability assay, single agent, SKOV3. The settings on record: Homo sapiens, SK-OV-3, SKOV3 ovarian cancer cells, 72 hours treatment.
Excerpt: as §1, §2, §3, §4, §5
In general terms: Resazurin is reduced to fluorescent resorufin, in cell work by metabolically active cells.

In the next assay the test system is A2780/CP cell line. Put plainly: CellTiter-Blue cell viability assay, single agent, A2780/CP. The note with it: Homo sapiens, A2780C/P, A2780/CP cis-platinum resistant cells, 72 hours treatment.
Excerpt: as §1, §2, §3, §4, §5

On to `COCCC(C(=O)Nc1ncc(C(=O)NO)s1)c1ccccc1` (stereo not shown) [Compound 14, N-hydroxy-2-(4-methoxy-2-phenylbutanamido)thiazole-5-carboxamide], for which the pIC50 (in general, the negative decadic logarithm of the IC50, by convention in mol/L) with A2780 cell line was 8.62; in the assay with SKOV3 cell line, 7.10; in the assay on A2780/CP cell line, 8.06.
Consider `COCCC(C(=O)Nc1ccc(C(=O)NO)cc1)c1ccccc1` (stereo not shown) [Compound 27, N-hydroxy-4-(4-methoxy-2-phenylbutanamido)benzamide], for which the pIC50 was 7.80 in the assay with A2780 cell line, 6.05 with SKOV3 cell line and 7.15 in the assay with A2780/CP cell line.
The matching figures for `CCC(C(=O)Nc1ncc(C(=O)NO)s1)c1cccc(OC)c1` (stereo not shown) [Compound 22, N-hydroxy-2-(2-(3-methoxyphenyl)butanamido)thiazole-5-carboxamide]: 6.22, 7.52 and 6.52.
`CCC(C(=O)Nc1ncc(C(=O)NO)s1)c1ccc(Br)cc1` (stereo not shown) [Compound 13, 2-(2-(4-bromophenyl)butanamido)-N-hydroxythiazole-5-carboxamide]: the results for the pIC50 in the assay with A2780 cell line, in the assay on SKOV3 cell line and with A2780/CP cell line were 9.30, 8.60 and 10.10, respectively.
Regarding `CC(C)C(C(=O)Nc1ccc(C(=O)NO)cc1)c1ccc(Cl)cc1` (stereo not shown) [Compound 12, 4-(2-(4-chlorophenyl)-3-methylbutanamido)-N-hydroxybenzamide], the pIC50 in the assay with A2780 cell line is 7.52; in the assay with SKOV3 cell line, 7.40; with A2780/CP cell line, 8.52.
The corresponding values for `CCC(C(=O)Nc1ncc(C(=O)NO)s1)c1ccccc1OC` (stereo not shown) [Compound 23, N-hydroxy-2-(2-(2-methoxyphenyl)butanamido)thiazole-5-carboxamide] are 7.00, 5.64 and 6.30.
Regarding `CC(C)C(C(=O)Nc1ncc(C(=O)NO)s1)c1ccc(Cl)cc1` (stereo not shown) [Compound 10, 2-(2-(4-chlorophenyl)-3-methylbutanamido)-N-hydroxythiazole-5-carboxamide], the pIC50 was 8.77 in the assay on A2780 cell line, 8.40 in the assay on SKOV3 cell line and 8.21 in the assay with A2780/CP cell line.
Consider `CC(C)C(C(=O)Nc1ncc(C(=O)NO)s1)c1ccc(O)cc1` (stereo not shown) [Compound 21, N-hydroxy-2-(2-(4-hydroxyphenyl)-3-methylbutanamido)thiazole-5-carboxamide], for which the pIC50 with A2780 cell line was 7.22; in the assay on SKOV3 cell line, 7.70; in the assay with A2780/CP cell line, 7.40.
Turning to `CCC(C(=O)Nc1ncc(C(=O)NO)s1)c1ccc(-c2ccccc2)cc1` (stereo not shown) [Compound 17, 2-(2-(biphenyl-4-yl)butanamido)-N-hydroxythiazole-5-carboxamide], the values for the pIC50 with A2780 cell line, with SKOV3 cell line and in the assay on A2780/CP cell line were more than 10.00, 9.70 and 9.05, respectively.
Take `COCCC(C(=O)Nc1ncc(C(=O)NO)s1)c1ccc(-c2ccccc2)cc1` (stereo not shown) [Compound 24, 2-(2-(biphenyl-4-yl)-4-methoxybutanamido)-N-hydroxythiazole-5-carboxamide]: the values for the pIC50 in the assay on A2780 cell line, in the assay on SKOV3 cell line and in the assay with A2780/CP cell line were 7.70, 7.52 and 7.77, respectively.
On to `CCC(C(=O)Nc1ncc(C(=O)NO)s1)c1ccc(OC)cc1` (stereo not shown) [Compound 8, N-hydroxy-2-(2-(4-methoxyphenyl)butanamido)thiazole-5-carboxamide], for which the pIC50 with A2780 cell line, with SKOV3 cell line and in the assay on A2780/CP cell line was more than 10.00 throughout.
Take `O=C(NO)c1cnc(NC(=O)C2(c3ccccc3)CC2)s1` [Compound 3, N-hydroxy-2-(1-phenylcyclopropanecarboxamido)thiazole-5-carboxamide]: the pIC50 is 5.92 in the assay on A2780 cell line, 5.39 in the assay on SKOV3 cell line and 5.12 with A2780/CP cell line.
The corresponding values for `CCC(C(=O)Nc1ccc(C(=O)NO)cc1)c1ccc(Br)cc1` (stereo not shown) [Compound 25, 4-(2-(4-bromophenyl)butanamido)-N-hydroxybenzamide] are 8.96, 7.00 and 7.70.
For `CCC(C(=O)Nc1ncc(C(=O)NO)s1)c1ccc(F)cc1` (stereo not shown) [Compound 19, 2-(2-(4-fluorophenyl)butanamido)-N-hydroxythiazole-5-carboxamide], the pIC50 is more than 10.00 in the assay on A2780 cell line, 8.05 in the assay on SKOV3 cell line and 8.52 in the assay on A2780/CP cell line.
`CCC(C(=O)Nc1ccc(C(=O)NO)cc1)c1ccc(-c2ccccc2)cc1` (stereo not shown) [Compound 26, 4-(2-(biphenyl-4-yl)butanamido)-N-hydroxybenzamide]: the pIC50 in the assay on A2780 cell line was 9.52; with SKOV3 cell line, 8.96; in the assay on A2780/CP cell line it was 8.77.
The matching figures for `CC(C(=O)Nc1ncc(C(=O)NO)s1)c1ccccc1` (stereo not shown) [Compound 9, N-hydroxy-2-(2-phenylpropanamido)thiazole-5-carboxamide]: 7.52, 7.52 and 8.32.
The matching figures for `CCC(C(=O)Nc1ncc(C(=O)NO)s1)c1ccccc1` (stereo not shown) [Compound 2, N-hydroxy-2-(2-phenylbutanamido)thiazole-5-carboxamide]: 9.30, 7.34 and 8.40.
As for `CC(C)C(C(=O)Nc1ncc(C(=O)NO)s1)c1ccccc1` (stereo not shown) [Compound 1, N-hydroxy-2-(3-methyl-2-phenylbutanamido)thiazole-5-carboxamide], in the assay with SKOV3 cell line, the pIC50 was 7.40.
Consider `O=C(CCc1ccccc1)Nc1ncc(C(=O)NO)s1` [Compound 6, N-hydroxy-2-(3-phenylpropanamido)thiazole-5-carboxamide], for which the pIC50 in the assay on A2780 cell line was 6.52; in the assay on SKOV3 cell line, 6.30; in the assay with A2780/CP cell line, 5.49.
As for `CCC(C(=O)Nc1ncc(C(=O)NO)s1)c1ccc(-c2cncnc2)cc1` (stereo not shown) [Compound 18, N-hydroxy-2-(2-(4-(pyrimidin-5-yl)phenyl)butanamido)thiazole-5-carboxamide], the pIC50 was 6.36 with A2780 cell line, 7.00 in the assay on SKOV3 cell line and 6.85 with A2780/CP cell line.
Consider `COC(C(=O)Nc1ncc(C(=O)NO)s1)c1ccccc1` (stereo not shown) [Compound 7, N-hydroxy-2-(2-methoxy-2-phenylacetamido)thiazole-5-carboxamide], for which the values for the pIC50 with A2780 cell line, in the assay on SKOV3 cell line and in the assay with A2780/CP cell line were 7.40, 7.15 and 7.70, respectively.
For `O=C(Cc1ccccc1)Nc1ncc(C(=O)NO)s1` [Compound 5, N-hydroxy-2-(2-phenylacetamido)thiazole-5-carboxamide], the pIC50 was 6.52 in the assay on A2780 cell line, 5.68 in the assay on SKOV3 cell line and 5.80 in the assay on A2780/CP cell line.
The matching figures for `CCC(C(=O)Nc1ncc(C(=O)NO)s1)c1cccc(F)c1` (stereo not shown) [Compound 20, 2-(2-(3-fluorophenyl)butanamido)-N-hydroxythiazole-5-carboxamide]: 8.62, 8.37 and 7.00.
The corresponding values for `CC(C)(Cc1ccccc1)C(=O)Nc1ncc(C(=O)NO)s1` [Compound 11, 2-(2,2-dimethyl-3-phenylpropanamido)-N-hydroxythiazole-5-carboxamide] are 5.42, 5.12 and 5.42.
In the case of `CCC(C(=O)Nc1ccc(C(=O)NO)cc1)c1ccc(OC)cc1` (stereo not shown) [Compound 15, N-hydroxy-4-(2-(4-methoxyphenyl)butanamido)benzamide], the negative logarithm of the IC50 (pIC50) in the assay with A2780 cell line was 10.40; in the assay with SKOV3 cell line it was 7.70; with A2780/CP cell line, 9.52.
The matching figures for `CC(C)(C(=O)Nc1ncc(C(=O)NO)s1)c1ccccc1` [Compound 4, N-hydroxy-2-(2-methyl-2-phenylpropanamido)thiazole-5-carboxamide]: 6.05, 5.89 and 5.12.
